Experimental data reported in patent US20020058696A1, “Chelate compound-containing antibacterial agent for helicobacter pylori” (DIRECTOR OF NTL. INST. OF AGROBIOLOGICAL RESOURCES , …, priority 2000, published 2002).

Experiments:
[1] = FAO/WHO Codex Alimentarius Commission, 1973; cited from earlier work
[2] = tested on: Helicobacter pylori ATCC 43504 strain
Experimental: Helicobacter pylori (ATCC 43504 strain, purchased from American Type Culture Collection) was cultured with use of a 96-well plate. […] After inoculation of Helicobacter pylori, the plate was introduced in a sealed vessel of 2.5 liter volume, into which Anaero Pack-Helico (made by Mitsubishi Gas Chemical), an agent for absorbing oxygen and generating carbon dioxide gas, was also introduced, and cultured for 5 days under an anaerobic condition at 37° C.
Growth of Helicobacter pylori was determined by means of a 96-well plate reader with use of a 540 nm or 595 nm filter. Herein, as a control for absorbance determination, a medium without EDTA was used.

SMILES | acceptable daily intake (ADI) as a food additive [1] | concentration at which growth of Helicobacter pylori is inhibited ([2]; ATCC 43504 strain, medium pH 8.0, cultured 5 days at 37° C under anaerobic condition, turbidity at 540 nm or 595 nm against control medium, from FIG. 1 / FIG. 2) | amount to be taken to inhibit growth of Helicobacter pylori ([2]; calculated for a human stomach volume of about 1.5 L, amount of the salt) | amount to be taken to inhibit growth of Helicobacter pylori, as free EDTA ([2]; calculated for a human stomach volume of about 1.5 L, expressed as free EDTA) | growth-inhibiting concentration converted into ([2]; conversion of 0.025-1 mM using molecular weight 372Da)
O=C(O)CN(CCN(CC(=O)O)CC(=O)O)CC(=O)O [EDTA, Ethylenediaminetetraacetic acid] | 2.5 mg/kg of weight | – | – | – | –
O=C([O-])CN(CCN(CC(=O)O)CC(=O)O)CC(=O)[O-].[Na+].[Na+] [disodium ethylenediaminetetraacetate] | – | 0.025 to 1 mM | 14 to 558 mg | 11 to 438 mg | 9.3 to 372 mg/L
